Experimental data published in the kinase profiling compilation of Christmann-Franck et al. (2016).

Columns and labels:
Assay in all cases: radiometric filter-binding kinase assay, Kinase HotSpot
Details in all cases: compound 0.5 µM; ATP 10 µM
JAK2 JH1 JH2 (human) = JAK2 JH1 JH2 (human) (UniProt O60674)
DSTYK (human) = DSTYK (human) (UniProt Q6XUX3)
DYRK4 (human) = DYRK4 (human) (UniProt Q9NR20)
CDK7 CCNH MNAT1 (human) = CDK7 CCNH MNAT1 (human) (UniProt P50613+P51948+P51946)
DAPK2 (human) = DAPK2 (human) (UniProt Q9UIK4)
PDPK1 (human) = PDPK1 (human) (UniProt O15530)
Chain of PDPK1 (human) (O15530 whole entry, looked up): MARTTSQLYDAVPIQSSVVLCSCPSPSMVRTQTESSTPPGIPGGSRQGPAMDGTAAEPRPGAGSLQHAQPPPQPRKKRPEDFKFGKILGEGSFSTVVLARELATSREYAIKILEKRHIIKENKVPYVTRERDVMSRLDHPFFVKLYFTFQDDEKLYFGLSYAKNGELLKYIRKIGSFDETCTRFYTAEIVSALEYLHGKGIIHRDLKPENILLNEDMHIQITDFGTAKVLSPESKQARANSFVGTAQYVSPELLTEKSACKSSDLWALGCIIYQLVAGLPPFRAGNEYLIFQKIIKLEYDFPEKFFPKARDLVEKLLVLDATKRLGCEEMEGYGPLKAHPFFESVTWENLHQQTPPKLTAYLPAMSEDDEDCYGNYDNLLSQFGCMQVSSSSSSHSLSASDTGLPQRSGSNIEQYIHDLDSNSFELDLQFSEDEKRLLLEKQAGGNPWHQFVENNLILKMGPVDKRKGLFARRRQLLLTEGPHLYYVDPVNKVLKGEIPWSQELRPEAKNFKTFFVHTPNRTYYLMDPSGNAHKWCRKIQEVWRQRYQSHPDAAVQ

PRKCE (human) = PRKCE (human) (UniProt Q02156)
SRPK1 (human) = SRPK1 (human) (UniProt Q96SB4)
CDK9 CCNT1 (human) = CDK9 CCNT1 (human) (UniProt P50750+O60563)
CDC42BPB (human) = CDC42BPB (human) (UniProt Q9Y5S2)
PAK1 (human) = PAK1 (human) (UniProt Q13153)
MERTK (human) = MERTK (human) (UniProt Q12866)
Chain of MERTK (human) (Q12866 whole entry, looked up): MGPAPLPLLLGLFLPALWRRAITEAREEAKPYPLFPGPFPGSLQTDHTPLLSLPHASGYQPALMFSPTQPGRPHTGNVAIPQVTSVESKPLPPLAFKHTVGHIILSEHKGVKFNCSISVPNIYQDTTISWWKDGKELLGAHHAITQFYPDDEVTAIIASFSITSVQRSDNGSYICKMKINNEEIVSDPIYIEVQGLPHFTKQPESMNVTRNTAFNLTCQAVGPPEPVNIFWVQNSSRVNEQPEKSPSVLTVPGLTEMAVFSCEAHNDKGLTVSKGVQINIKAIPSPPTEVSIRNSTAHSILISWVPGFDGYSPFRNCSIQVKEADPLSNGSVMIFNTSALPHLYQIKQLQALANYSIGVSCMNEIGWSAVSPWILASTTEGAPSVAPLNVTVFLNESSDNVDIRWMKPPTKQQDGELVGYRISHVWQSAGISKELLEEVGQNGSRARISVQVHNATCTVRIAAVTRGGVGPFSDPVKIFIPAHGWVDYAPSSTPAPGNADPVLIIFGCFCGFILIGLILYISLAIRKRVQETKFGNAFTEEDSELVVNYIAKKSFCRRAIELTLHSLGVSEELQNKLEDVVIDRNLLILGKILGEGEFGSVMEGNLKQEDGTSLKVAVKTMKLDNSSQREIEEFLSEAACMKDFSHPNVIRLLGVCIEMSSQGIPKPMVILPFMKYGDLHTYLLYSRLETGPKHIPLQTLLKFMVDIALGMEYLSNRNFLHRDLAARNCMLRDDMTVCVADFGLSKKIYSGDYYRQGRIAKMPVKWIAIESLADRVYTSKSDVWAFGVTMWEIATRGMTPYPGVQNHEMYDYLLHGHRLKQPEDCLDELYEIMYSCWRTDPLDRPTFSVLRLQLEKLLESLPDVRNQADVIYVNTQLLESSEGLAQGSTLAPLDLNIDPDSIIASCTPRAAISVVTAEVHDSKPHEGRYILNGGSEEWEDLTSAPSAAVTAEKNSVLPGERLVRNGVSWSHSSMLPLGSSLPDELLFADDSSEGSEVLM

PRKCD (human) = PRKCD (human) (UniProt Q05655)
CSNK1G3 (human) = CSNK1G3 (human) (UniProt Q9Y6M4)
CAMK1D (human) = CAMK1D (human) (UniProt Q8IU85)
GRK5 (human) = GRK5 (human) (UniProt P34947)
Chain of GRK5 (human) (P34947 whole entry, looked up): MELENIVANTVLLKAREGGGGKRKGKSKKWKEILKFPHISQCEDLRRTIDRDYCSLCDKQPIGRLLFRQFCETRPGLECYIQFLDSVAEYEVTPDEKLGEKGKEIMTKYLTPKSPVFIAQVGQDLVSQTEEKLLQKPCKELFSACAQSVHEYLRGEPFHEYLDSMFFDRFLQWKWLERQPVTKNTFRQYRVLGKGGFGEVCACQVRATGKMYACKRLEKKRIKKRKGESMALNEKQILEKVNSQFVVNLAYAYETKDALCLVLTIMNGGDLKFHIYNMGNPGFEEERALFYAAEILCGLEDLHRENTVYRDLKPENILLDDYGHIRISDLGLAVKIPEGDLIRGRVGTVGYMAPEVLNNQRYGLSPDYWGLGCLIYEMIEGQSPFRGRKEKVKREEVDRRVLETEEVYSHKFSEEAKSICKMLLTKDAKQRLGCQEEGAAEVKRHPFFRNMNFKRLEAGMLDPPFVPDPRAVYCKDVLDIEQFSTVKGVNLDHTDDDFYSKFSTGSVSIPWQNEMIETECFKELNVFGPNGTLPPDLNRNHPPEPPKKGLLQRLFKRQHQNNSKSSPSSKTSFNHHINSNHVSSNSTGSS

[1] = molecular target: TYK2 JH1 catalytic (human) (UniProt P29597)
PAK2 (human) = PAK2 (human) (UniProt Q13177)
PNCK (human) = PNCK (human) (UniProt Q6P2M8)
DYRK1B (human) = DYRK1B (human) (UniProt Q9Y463)
Chain of DYRK1B (human) (Q9Y463 whole entry, looked up): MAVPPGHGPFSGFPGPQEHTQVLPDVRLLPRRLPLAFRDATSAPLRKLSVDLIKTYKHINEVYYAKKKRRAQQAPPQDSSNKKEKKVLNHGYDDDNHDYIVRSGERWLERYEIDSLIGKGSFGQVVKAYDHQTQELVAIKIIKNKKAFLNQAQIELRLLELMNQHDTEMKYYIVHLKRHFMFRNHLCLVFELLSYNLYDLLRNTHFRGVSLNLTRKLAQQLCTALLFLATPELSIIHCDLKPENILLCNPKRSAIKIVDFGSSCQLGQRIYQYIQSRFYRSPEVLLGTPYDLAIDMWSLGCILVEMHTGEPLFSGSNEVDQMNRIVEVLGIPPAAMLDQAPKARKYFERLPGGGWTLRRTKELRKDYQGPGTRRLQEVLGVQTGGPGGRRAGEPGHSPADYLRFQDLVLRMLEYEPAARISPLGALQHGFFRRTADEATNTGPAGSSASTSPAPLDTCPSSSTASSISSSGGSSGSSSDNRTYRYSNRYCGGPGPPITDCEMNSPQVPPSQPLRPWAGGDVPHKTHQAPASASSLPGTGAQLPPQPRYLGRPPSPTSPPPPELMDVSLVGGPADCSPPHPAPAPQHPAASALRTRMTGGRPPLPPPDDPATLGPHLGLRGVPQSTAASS

ABL2 (human) = ABL2 (human) (UniProt P42684)
TAOK2 (human) = TAOK2 (human) (UniProt Q9UL54)
Chain of TAOK2 (human) (Q9UL54 whole entry, looked up): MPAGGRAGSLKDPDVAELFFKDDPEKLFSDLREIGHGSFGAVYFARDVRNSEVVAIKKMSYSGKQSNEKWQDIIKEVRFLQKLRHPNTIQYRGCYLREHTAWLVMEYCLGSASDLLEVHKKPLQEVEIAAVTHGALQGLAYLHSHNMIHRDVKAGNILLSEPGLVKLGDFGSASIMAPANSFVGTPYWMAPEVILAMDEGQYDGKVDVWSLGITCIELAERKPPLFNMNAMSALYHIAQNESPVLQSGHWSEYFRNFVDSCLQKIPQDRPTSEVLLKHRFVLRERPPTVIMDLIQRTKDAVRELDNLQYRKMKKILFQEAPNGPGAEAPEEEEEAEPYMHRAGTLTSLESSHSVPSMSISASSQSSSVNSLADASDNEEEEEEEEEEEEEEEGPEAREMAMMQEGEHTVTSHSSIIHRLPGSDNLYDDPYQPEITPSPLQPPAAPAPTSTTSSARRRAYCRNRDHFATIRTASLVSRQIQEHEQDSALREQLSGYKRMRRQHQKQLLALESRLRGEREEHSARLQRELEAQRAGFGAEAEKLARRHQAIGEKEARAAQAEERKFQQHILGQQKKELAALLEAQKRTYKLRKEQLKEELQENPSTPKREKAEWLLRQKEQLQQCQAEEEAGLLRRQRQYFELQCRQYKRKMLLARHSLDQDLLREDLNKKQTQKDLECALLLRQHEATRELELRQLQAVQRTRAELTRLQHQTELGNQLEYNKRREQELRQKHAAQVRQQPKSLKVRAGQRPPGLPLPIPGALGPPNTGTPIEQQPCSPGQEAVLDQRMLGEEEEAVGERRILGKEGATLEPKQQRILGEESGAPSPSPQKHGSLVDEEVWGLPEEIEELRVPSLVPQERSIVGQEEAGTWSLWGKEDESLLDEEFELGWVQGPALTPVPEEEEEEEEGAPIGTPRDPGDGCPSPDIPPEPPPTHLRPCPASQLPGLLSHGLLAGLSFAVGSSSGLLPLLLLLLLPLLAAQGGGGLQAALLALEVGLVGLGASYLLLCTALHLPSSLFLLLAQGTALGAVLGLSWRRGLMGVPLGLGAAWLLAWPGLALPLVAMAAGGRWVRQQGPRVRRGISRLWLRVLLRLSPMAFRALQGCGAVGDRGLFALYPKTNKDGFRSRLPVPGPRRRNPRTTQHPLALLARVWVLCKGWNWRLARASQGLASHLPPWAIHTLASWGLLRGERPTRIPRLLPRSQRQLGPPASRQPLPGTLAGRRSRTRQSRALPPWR

FGFR4 (human) = FGFR4 (human) (UniProt P22455)
YES1 (human) = YES1 (human) (UniProt P07947)
Chain of YES1 (human) (P07947 whole entry, looked up): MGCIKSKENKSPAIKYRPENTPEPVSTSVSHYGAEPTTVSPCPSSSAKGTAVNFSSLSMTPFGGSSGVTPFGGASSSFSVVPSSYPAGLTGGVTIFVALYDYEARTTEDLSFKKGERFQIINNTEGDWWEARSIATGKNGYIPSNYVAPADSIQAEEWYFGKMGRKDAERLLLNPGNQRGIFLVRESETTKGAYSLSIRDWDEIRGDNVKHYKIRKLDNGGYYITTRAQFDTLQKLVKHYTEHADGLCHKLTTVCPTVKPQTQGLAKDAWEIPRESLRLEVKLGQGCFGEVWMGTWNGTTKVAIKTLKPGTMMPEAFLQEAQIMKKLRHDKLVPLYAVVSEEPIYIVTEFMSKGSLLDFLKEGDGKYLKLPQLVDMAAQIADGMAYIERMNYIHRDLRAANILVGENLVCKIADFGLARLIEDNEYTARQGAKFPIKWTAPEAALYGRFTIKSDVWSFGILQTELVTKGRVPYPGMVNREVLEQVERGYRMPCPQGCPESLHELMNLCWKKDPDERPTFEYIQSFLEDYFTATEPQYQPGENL

CDK9 CCNK (human) = CDK9 CCNK (human) (UniProt O75909+P50750)
TGFBR2 (human) = TGFBR2 (human) (UniProt P37173)
NUAK1 (human) = NUAK1 (human) (UniProt O60285)
FLT3 (human) = FLT3 (human) (UniProt P36888)
ACVRL1 (human) = ACVRL1 (human) (UniProt P37023)
PBK (human) = PBK (human) (UniProt Q96KB5)
LIMK1 (human) = LIMK1 (human) (UniProt P53667)
MAP3K10 (human) = MAP3K10 (human) (UniProt Q02779)
GSK3B (human) = GSK3B (human) (UniProt P49841)
NTRK2 (human) = NTRK2 (human) (UniProt Q16620)
JAK3 JH1 JH2 (human) = JAK3 JH1 JH2 (human) (UniProt P52333)
PLK3 (human) = PLK3 (human) (UniProt Q9H4B4)
MAP2K1 (human) = MAP2K1 (human) (UniProt Q02750)
Chain of MAP2K1 (human) (Q02750 whole entry, looked up): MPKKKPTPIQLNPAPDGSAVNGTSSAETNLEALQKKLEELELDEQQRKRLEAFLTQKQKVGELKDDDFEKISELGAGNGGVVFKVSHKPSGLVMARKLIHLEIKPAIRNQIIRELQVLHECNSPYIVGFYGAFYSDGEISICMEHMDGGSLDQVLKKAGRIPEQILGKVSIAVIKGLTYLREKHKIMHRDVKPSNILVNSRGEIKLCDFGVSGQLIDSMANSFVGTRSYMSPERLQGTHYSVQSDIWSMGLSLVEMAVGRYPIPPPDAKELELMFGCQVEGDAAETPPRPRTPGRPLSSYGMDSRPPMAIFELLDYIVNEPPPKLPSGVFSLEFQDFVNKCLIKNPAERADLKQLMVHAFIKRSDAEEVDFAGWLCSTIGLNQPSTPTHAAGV

PRKG2 (human) = PRKG2 (human) (UniProt Q13237)
MAPKAPK5 (human) = MAPKAPK5 (human) (UniProt Q8IW41)
MARK1 (human) = MARK1 (human) (UniProt Q9P0L2)

## Nc1cccc(-c2cc3c(Oc4cccc(O)c4)ncnc3[nH]2)c1
JAK2 JH1 JH2 (human)
  residual activity: 85.4%
DSTYK (human)
  residual activity: 83.4%
DYRK4 (human)
  residual activity: 101%
CDK7 CCNH MNAT1 (human)
  residual activity: 94.2%
DAPK2 (human)
  residual activity: 106%
PDPK1 (human)
  residual activity: 86.8%
PRKCE (human)
  residual activity: 97.4%
SRPK1 (human)
  residual activity: 107%
CDK9 CCNT1 (human)
  residual activity: 63.2%
CDC42BPB (human)
  residual activity: 93.5%
PAK1 (human)
  residual activity: 88%
MERTK (human)
  residual activity: 63.8%
PRKCD (human)
  residual activity: 95.7%
CSNK1G3 (human)
  residual activity: 92.6%
CAMK1D (human)
  residual activity: 97.7%
GRK5 (human)
  residual activity: 128%
[1]
  residual activity: 36.9%
PAK2 (human)
  residual activity: 88.9%
PNCK (human)
  residual activity: 98.2%
DYRK1B (human)
  residual activity: 100%
ABL2 (human)
  residual activity: 1.4%
TAOK2 (human)
  residual activity: 81.4%
FGFR4 (human)
  residual activity: 45.1%
YES1 (human)
  residual activity: 6.05%
CDK9 CCNK (human)
  residual activity: 58.4%
TGFBR2 (human)
  residual activity: 42.6%
NUAK1 (human)
  residual activity: 37%
FLT3 (human)
  residual activity: 30.7%
ACVRL1 (human)
  residual activity: 70.3%
PBK (human)
  residual activity: 93.9%
LIMK1 (human)
  residual activity: 22.1%
MAP3K10 (human)
  residual activity: 79.2%
GSK3B (human)
  residual activity: 48.1%
NTRK2 (human)
  residual activity: 95.5%
JAK3 JH1 JH2 (human)
  residual activity: 123%
PLK3 (human)
  residual activity: 95.7%
MAP2K1 (human)
  residual activity: 76.3%
PRKG2 (human)
  residual activity: 108%
MAPKAPK5 (human)
  residual activity: 125%
MARK1 (human)
  residual activity: 83%

## Cc1ccc(S(=O)(=O)/C=C/C#N)cc1
JAK2 JH1 JH2 (human)
  residual activity: 99.5%
DSTYK (human)
  residual activity: 97.8%
DYRK4 (human)
  residual activity: 95.1%
CDK7 CCNH MNAT1 (human)
  residual activity: 98.2%
DAPK2 (human)
  residual activity: 100%
PDPK1 (human)
  residual activity: 102%
PRKCE (human)
  residual activity: 106%
SRPK1 (human)
  residual activity: 99.7%
CDK9 CCNT1 (human)
  residual activity: 98.2%
CDC42BPB (human)
  residual activity: 96.4%
PAK1 (human)
  residual activity: 89.5%
MERTK (human)
  residual activity: 96.4%
PRKCD (human)
  residual activity: 95.6%
CSNK1G3 (human)
  residual activity: 88.3%
CAMK1D (human)
  residual activity: 108%
GRK5 (human)
  residual activity: 105%
[1]
  residual activity: 82.8%
PAK2 (human)
  residual activity: 102%
PNCK (human)
  residual activity: 107%
DYRK1B (human)
  residual activity: 101%
ABL2 (human)
  residual activity: 104%
TAOK2 (human)
  residual activity: 89.7%
FGFR4 (human)
  residual activity: 94.3%
YES1 (human)
  residual activity: 94.2%
CDK9 CCNK (human)
  residual activity: 112%
TGFBR2 (human)
  residual activity: 97.9%
NUAK1 (human)
  residual activity: 101%
FLT3 (human)
  residual activity: 100%
ACVRL1 (human)
  residual activity: 100%
PBK (human)
  residual activity: 83.2%
LIMK1 (human)
  residual activity: 97.1%
MAP3K10 (human)
  residual activity: 105%
GSK3B (human)
  residual activity: 109%
NTRK2 (human)
  residual activity: 98.5%
JAK3 JH1 JH2 (human)
  residual activity: 101%
PLK3 (human)
  residual activity: 97.1%
MAP2K1 (human)
  residual activity: 93.9%
PRKG2 (human)
  residual activity: 102%
MAPKAPK5 (human)
  residual activity: 88.9%
MARK1 (human)
  residual activity: 102%

## O=c1cc(N2CCOCC2)oc2c1ccc1ccccc12
JAK2 JH1 JH2 (human)
  residual activity: 94.9%
DSTYK (human)
  residual activity: 110%
DYRK4 (human)
  residual activity: 91.9%
CDK7 CCNH MNAT1 (human)
  residual activity: 98.2%
DAPK2 (human)
  residual activity: 115%
PDPK1 (human)
  residual activity: 109%
PRKCE (human)
  residual activity: 89.6%
SRPK1 (human)
  residual activity: 90.9%
CDK9 CCNT1 (human)
  residual activity: 99.1%
CDC42BPB (human)
  residual activity: 98.3%
PAK1 (human)
  residual activity: 93.5%
MERTK (human)
  residual activity: 96.4%
PRKCD (human)
  residual activity: 95.1%
CSNK1G3 (human)
  residual activity: 98.1%
CAMK1D (human)
  residual activity: 91.1%
GRK5 (human)
  residual activity: 106%
[1]
  residual activity: 111%
PAK2 (human)
  residual activity: 103%
PNCK (human)
  residual activity: 97.4%
DYRK1B (human)
  residual activity: 90.5%
ABL2 (human)
  residual activity: 101%
TAOK2 (human)
  residual activity: 108%
FGFR4 (human)
  residual activity: 108%
YES1 (human)
  residual activity: 98.7%
CDK9 CCNK (human)
  residual activity: 99.9%
TGFBR2 (human)
  residual activity: 122%
NUAK1 (human)
  residual activity: 90.1%
FLT3 (human)
  residual activity: 104%
ACVRL1 (human)
  residual activity: 100%
PBK (human)
  residual activity: 103%
LIMK1 (human)
  residual activity: 98%
MAP3K10 (human)
  residual activity: 102%
GSK3B (human)
  residual activity: 124%
NTRK2 (human)
  residual activity: 94%
JAK3 JH1 JH2 (human)
  residual activity: 103%
PLK3 (human)
  residual activity: 64%
MAP2K1 (human)
  residual activity: 99.3%
PRKG2 (human)
  residual activity: 102%
MAPKAPK5 (human)
  residual activity: 98.4%
MARK1 (human)
  residual activity: 99.5%

## Cc1ccc(NC2=CC(=O)c3sc(C)nc3C2=O)cc1
JAK2 JH1 JH2 (human)
  residual activity: 99.1%
DSTYK (human)
  residual activity: 76.1%
DYRK4 (human)
  residual activity: 97.9%
CDK7 CCNH MNAT1 (human)
  residual activity: 95.4%
DAPK2 (human)
  residual activity: 91.9%
PDPK1 (human)
  residual activity: 88.7%
PRKCE (human)
  residual activity: 96.3%
SRPK1 (human)
  residual activity: 92.6%
CDK9 CCNT1 (human)
  residual activity: 97.6%
CDC42BPB (human)
  residual activity: 109%
PAK1 (human)
  residual activity: 87.5%
MERTK (human)
  residual activity: 80.5%
PRKCD (human)
  residual activity: 104%
CSNK1G3 (human)
  residual activity: 90.1%
CAMK1D (human)
  residual activity: 100%
GRK5 (human)
  residual activity: 106%
[1]
  residual activity: 109%
PAK2 (human)
  residual activity: 104%
PNCK (human)
  residual activity: 95.3%
DYRK1B (human)
  residual activity: 94.6%
ABL2 (human)
  residual activity: 98.3%
TAOK2 (human)
  residual activity: 96.6%
FGFR4 (human)
  residual activity: 86.7%
YES1 (human)
  residual activity: 86.7%
CDK9 CCNK (human)
  residual activity: 84.4%
TGFBR2 (human)
  residual activity: 77.6%
NUAK1 (human)
  residual activity: 93%
FLT3 (human)
  residual activity: 72.5%
ACVRL1 (human)
  residual activity: 101%
PBK (human)
  residual activity: 85.8%
LIMK1 (human)
  residual activity: 104%
MAP3K10 (human)
  residual activity: 94.6%
GSK3B (human)
  residual activity: 82%
NTRK2 (human)
  residual activity: 100%
JAK3 JH1 JH2 (human)
  residual activity: 97.4%
PLK3 (human)
  residual activity: 94.5%
MAP2K1 (human)
  residual activity: 96.1%
PRKG2 (human)
  residual activity: 60.8%
MAPKAPK5 (human)
  residual activity: 108%
MARK1 (human)
  residual activity: 89.6%

## CC[n+]1c(/C=C/N(C)c2ccccc2)n(-c2ccccc2)c2ccc(-c3nc4ccccc4s3)cc21
JAK2 JH1 JH2 (human)
  residual activity: 98.8%
DSTYK (human)
  residual activity: 103%
DYRK4 (human)
  residual activity: 107%
CDK7 CCNH MNAT1 (human)
  residual activity: 97.8%
DAPK2 (human)
  residual activity: 94.3%
PDPK1 (human)
  residual activity: 103%
PRKCE (human)
  residual activity: 97.7%
SRPK1 (human)
  residual activity: 105%
CDK9 CCNT1 (human)
  residual activity: 89.5%
CDC42BPB (human)
  residual activity: 95%
PAK1 (human)
  residual activity: 87.5%
MERTK (human)
  residual activity: 96.5%
PRKCD (human)
  residual activity: 93.3%
CSNK1G3 (human)
  residual activity: 92.4%
CAMK1D (human)
  residual activity: 99.7%
GRK5 (human)
  residual activity: 109%
[1]
  residual activity: 88.5%
PAK2 (human)
  residual activity: 97.3%
PNCK (human)
  residual activity: 114%
DYRK1B (human)
  residual activity: 101%
ABL2 (human)
  residual activity: 95.7%
TAOK2 (human)
  residual activity: 97.7%
FGFR4 (human)
  residual activity: 84.1%
YES1 (human)
  residual activity: 94.9%
CDK9 CCNK (human)
  residual activity: 106%
TGFBR2 (human)
  residual activity: 95.1%
NUAK1 (human)
  residual activity: 96.1%
FLT3 (human)
  residual activity: 98.6%
ACVRL1 (human)
  residual activity: 110%
PBK (human)
  residual activity: 107%
LIMK1 (human)
  residual activity: 98.3%
MAP3K10 (human)
  residual activity: 103%
GSK3B (human)
  residual activity: 105%
NTRK2 (human)
  residual activity: 97.8%
JAK3 JH1 JH2 (human)
  residual activity: 106%
PLK3 (human)
  residual activity: 104%
MAP2K1 (human)
  residual activity: 93.5%
PRKG2 (human)
  residual activity: 92.4%
MAPKAPK5 (human)
  residual activity: 96.8%
MARK1 (human)
  residual activity: 104%
